Test results taken from US12239654B2, “Compounds and methods for treating neurological and cardiovascular conditions” (Astrocyte Pharmaceuticals, Inc., priority 2016, dated 2025).
“And” between values parts separate entries of the source, which are not always exact repeats. Equal values may be shown once. Read-outs that look alike come from different tables or passages of the source.

Experiments:
[1] = Pharmacokinetics of MRS4322 following intraperitoneal administration to mice (plasma and brain concentrations, LC-MS/MS); assay type: in vivo; settings: female, mouse, plasma; for Tmax: MRS4322 0.16 mg/kg ip; for half-life: ip, MRS4322 […] ip
Description: Animals: Female C576BL/6J mice weighing approximately 0.02 kg were used for this study, supplied by the University of Texas Health Sciences Center (San Antonio, TX). All studies were conducted under approved University of Texas Health Sciences Center IACUC protocols.
Drug Administration: MRS4322 was solubilized in DMSO and then diluted in saline to prepare dosing solution. Final dosing solution concentration of MRS4322 was 100 μM. A 100 μL volume of dosing solution was administered intraperitoneally to each mouse per 20 gram body weight; MRS4322 was administered intraperitoneally at 0.16 mg/kg or 0.5 μmol/kg. Three mice were administered MRS4322 for each sampling timepoint.
Tissue Sampling: Blood and brain samples were obtained at 0, 0.083, 0.25, 0.5, 1, 2 and 8 hours post-dose. At each timepoint, mice (3/timepoint) were euthanized in a […] chamber. Whole blood was obtained by cardiac puncture into Microtainer tubes containing heparin and immediately centrifuged for preparation of plasma; plasma was stored at −80° C. At each timepoint, whole brain samples were obtained by decapitation, rinsed in ice-cold phosphate-buffered saline and weighed. Brain samples were then immediately flash-frozen in liquid nitrogen and stored at −80° C.
(§1) The following table outlines the LC and MS/MS conditions employed:
The calibration range for the MRS4322 plasma concentration standard curve was 2.42-242 ng/mL. The calibration range for MRS4322 brain concentrations was 2.41-233 ng/mL.
For bioanalysis of brain concentrations of MRS4322, brain samples were homogenized in ice-cold phosphate-buffered saline in a 4× dilution. Aliquots of the resulting diluted brain homogenate were treated with acetonitrile and analyzed by LC-MS/MS. Because of the 4× homogenate dilution, the calibration range of the MRS4322 brain standard curve was translated to 9.64-932 ng/gm. In several samples, MRS4322 was detectable but fell below the brain LLOQ of 9.64 ng/gm but were above background; in these cases the final reported brain concentration was extrapolated based on MS peak heights.

[2] = Pharmacokinetics of MRS4322 following intravenous administration to neonatal pigs; assay type: in vivo
Description: Animals. Four-week old female neonatal pigs weighing approximately 7.5 Kg were used for this study, supplied by the Department of Bioengineering, University of Pennsylvania (Philadelphia, PA). Animals were equipped with brain microdialysis probes to obtain brain extracellular fluid samples for drug concentration determinations during the study. All studies were conducted under approved University of Pennsylvania IACUC protocols.
Drug Administration: MRS4322 was solubilized in DMSO and then diluted in saline to prepare dosing solution. A 10 mL volume of dosing solution was administered by intravenous bolus administration to each neonatal pig (n=3).
Tissue Sampling: Blood samples were obtained at 0.25, 0.5, 1, 2, 4 and 6 hours post-dose. Brain extracellular fluid samples were obtained from implanted microdialysis probes at 1, 4 and 6 hours post-dose. Whole blood (1 mL) was obtained at each timepoint and placed in vacutainer tubes containing heparin and immediately centrifuged for preparation of plasma; plasma was stored at −80° C. Brain extracellular and cerebrospinal fluid samples were stored at −80° C. At the time of euthanasia (6 hours post-dose), cerebrospinal fluid samples were obtained and frozen, while brain samples from the cortex and hippocampus were obtained by decapitation, rinsed in ice-cold phosphate-buffered saline and weighed. Brain samples were then immediately flash-frozen in liquid nitrogen and stored at −80° C.
as §1
The calibration ranges for all of the MRS4322 matrice's standard curves were 0.1-1000 ng/mL.
For bioanalysis of brain concentrations of MRS4322, brain samples were homogenized in ice-cold phosphate-buffered saline in a 4× dilution. Aliquots of the resulting diluted brain homogenate were treated with acetonitrile and analyzed by LC-MS/MS.

[3] = plasma, MRS4322 0.2 mg/kg IV, individual animals, 0.2 mg/kg

CSc1nc(N)c2ncn([C@H]3[C@H](O)[C@H](O)[C@]4(CO)C[C@H]34)c2n1 [MRS4322]
Tmax ([1]; C57BL/6J, mean, read-out: Tmax Mean): 4.98 min | half-life ([1]; C57BL/6J, mean, read-out: Half-life Mean (converted)): 18.6 min | Tmax ([1]; C576BL/6J, animals A-C, read-out: Tmax): 4.98 min | half-life ([1]; C576BL/6J, animals A-C, read-out: Half-life (converted)): 18.4 min | Brain Concentration by Subject ([2]; Brain Cortex, MRS4322 0.2 mg/kg IV, 6 h, individual subjects, 0.2 mg/kg): 3.80 ng/mL and 6.15 ng/mL | Brain Concentration by Subject ([2]; Brain Hippocampus, MRS4322 0.2 mg/kg IV, 6 h, individual subjects, 0.2 mg/kg): 4.56 ng/mL and 5.39 ng/mL | Cerebro-Spinal Fluid Concentration by Subject ([2]; CSF, MRS4322 0.2 mg/kg IV, 6 h, individual subjects, 0.2 mg/kg): 1.04 ng/mL and 1.75 ng/mL | Plasma Concentration by Subject ([2]; MRS4322 0.2 mg/kg IV, 0 h, individual subjects): BLQ | Plasma Concentration Mean ([2]; MRS4322 0.2 mg/kg IV, 0 h, mean): BLQ | Plasma Concentration by Subject ([2]; MRS4322 0.2 mg/kg IV, 0.25 h, individual subjects, 0.2 mg/kg): 120 ng/mL and 163 ng/mL | Plasma Concentration by Subject ([2]; MRS4322 0.2 mg/kg IV, 0.5 h, individual subjects, 0.2 mg/kg): 54.1 ng/mL and 98.7 ng/mL | Plasma Concentration by Subject ([2]; MRS4322 0.2 mg/kg IV, 1 h, individual subjects, 0.2 mg/kg): 51.4 ng/mL and 63.0 ng/mL | Plasma Concentration by Subject ([2]; MRS4322 0.2 mg/kg IV, 2 h, individual subjects, 0.2 mg/kg): 27.2 ng/mL and 18.7 ng/mL and 46.8 ng/mL | Plasma Concentration by Subject ([2]; MRS4322 0.2 mg/kg IV, 4 h, individual subjects, 0.2 mg/kg): 21.9 ng/mL and 28.7 ng/mL | Plasma Concentration by Subject ([2]; MRS4322 0.2 mg/kg IV, 6 h, individual subjects, 0.2 mg/kg): 15.3 ng/mL and 9.08 ng/mL and 20.8 ng/mL | Extracellular Fluid Concentration by Subject ([2]; brain ECF (microdialysis), MRS4322 0.2 mg/kg IV, 1 h, individual subjects, 0.2 mg/kg): 1.55 ng/mL and 0.641 ng/mL and 1.70 ng/mL | Extracellular Fluid Concentration by Subject ([2]; brain ECF, MRS4322 0.2 mg/kg IV, 4 h, individual subjects, 0.2 mg/kg): 0.693 ng/mL and 0.579 ng/mL and 1.36 ng/mL | Extracellular Fluid Concentration by Subject ([2]; brain ECF, MRS4322 0.2 mg/kg IV, 6 h, individual subjects, 0.2 mg/kg): 0.602 ng/mL and 0.459 ng/mL and 1.08 ng/mL | Kp at 6 h ([2]; female, pig, 0.2 mg/kg, IV, 6 hours post-dose, based on mean concentrations in plasma and brain, read-out: brain/plasma ratio of total drug): ~0.3 | concentration at 6 h ([2]; female, pig, brain cortex, iv, 0.2 mg/kg, Brain Cortex, MRS4322 0.2 mg/kg IV, 6 h, individual subjects, read-out: Brain Concentration by Subject): 5.34 ng/mL | concentration at 6 h ([2]; female, pig, brain cortex, iv, 0.2 mg/kg, Brain Cortex, MRS4322 0.2 mg/kg IV, 6 h, mean, read-out: Brain Concentration Mean): 5.1 ng/mL | concentration at 1 h ([2]; female, pig, brain extracellular fluid, iv, 0.2 mg/kg, brain ECF, MRS4322 0.2 mg/kg IV, 1 h, mean, read-out: Extracellular Fluid Concentration Mean): 1.3 ng/mL | concentration at 4 h ([2]; female, pig, brain extracellular fluid, iv, 0.2 mg/kg, brain ECF, MRS4322 0.2 mg/kg IV, 4 h, mean, read-out: Extracellular Fluid Concentration Mean): 0.941 ng/mL | concentration at 6 h ([2]; female, pig, brain extracellular fluid, iv, 0.2 mg/kg, brain ECF, MRS4322 0.2 mg/kg IV, 6 h, mean, read-out: Extracellular Fluid Concentration Mean): 0.714 ng/mL | concentration at 6 h ([2]; female, pig, brain hippocampus, iv, 0.2 mg/kg, Brain Hippocampus, MRS4322 0.2 mg/kg IV, 6 h, individual subjects, read-out: Brain Concentration by Subject): 6.47 ng/mL | concentration at 6 h ([2]; female, pig, brain hippocampus, iv, 0.2 mg/kg, Brain Hippocampus, MRS4322 0.2 mg/kg IV, 6 h, mean, read-out: Brain Concentration Mean): 5.47 ng/mL | concentration at 6 h ([2]; female, pig, cerebrospinal fluid, iv, 0.2 mg/kg, CSF, MRS4322 0.2 mg/kg IV, 6 h, individual subjects, read-out: Cerebro-Spinal Fluid Concentration by Subject): 1.37 ng/mL | concentration at 6 h ([2]; female, pig, cerebrospinal fluid, iv, 0.2 mg/kg, CSF, MRS4322 0.2 mg/kg IV, 6 h, mean, read-out: Cerebro-Spinal Fluid Concentration Mean): 1.39 ng/mL | Tmax ([2]; female, pig, plasma, MRS4322 0.2 mg/kg IV, mean, read-out: Tmax Mean): 15 min | concentration at 0.25 h ([2]; female, pig, plasma, iv, 0.2 mg/kg, MRS4322 0.2 mg/kg IV, 0.25 h, individual subjects, read-out: Plasma Concentration by Subject): 133 ng/mL | concentration at 0.25 h ([2]; female, pig, plasma, iv, 0.2 mg/kg, MRS4322 0.2 mg/kg IV, 0.25 h, mean, read-out: Plasma Concentration Mean): 139 ng/mL | concentration at 0.5 h ([2]; female, pig, plasma, iv, 0.2 mg/kg, MRS4322 0.2 mg/kg IV, 0.5 h, individual subjects, read-out: Plasma Concentration by Subject): 85.3 ng/mL | concentration at 0.5 h ([2]; female, pig, plasma, iv, 0.2 mg/kg, MRS4322 0.2 mg/kg IV, 0.5 h, mean, read-out: Plasma Concentration Mean): 79.4 ng/mL | concentration at 1 h ([2]; female, pig, plasma, iv, 0.2 mg/kg, MRS4322 0.2 mg/kg IV, 1 h, individual subjects, read-out: Plasma Concentration by Subject): 58.9 ng/mL | concentration at 1 h ([2]; female, pig, plasma, iv, 0.2 mg/kg, MRS4322 0.2 mg/kg IV, 1 h, mean, read-out: Plasma Concentration Mean): 57.8 ng/mL | concentration at 2 h ([2]; female, pig, plasma, iv, 0.2 mg/kg, MRS4322 0.2 mg/kg IV, 2 h, mean): 30.9 ng/mL | concentration at 4 h ([2]; female, pig, plasma, iv, 0.2 mg/kg, MRS4322 0.2 mg/kg IV, 4 h, individual subjects, read-out: Plasma Concentration by Subject): 23.3 ng/mL | concentration at 4 h ([2]; female, pig, plasma, iv, 0.2 mg/kg, MRS4322 0.2 mg/kg IV, 4 h, mean, read-out: Plasma Concentration Mean): 24.6 ng/mL | concentration at 6 h ([2]; female, pig, plasma, iv, 0.2 mg/kg, MRS4322 0.2 mg/kg IV, 6 h, mean, read-out: Plasma Concentration Mean): 15.1 ng/mL | half-life ([2]; female, pig, plasma, iv, 0.2 mg/kg, MRS4322 0.2 mg/kg IV, mean): 205 min | AUC(0-inf) ([2]; female, pig, plasma, iv, 0.2 mg/kg, plasma, MRS4322 0.2 mg/kg IV, individual animals, read-out: AUCINF): 344 ng·h/mL | AUC(0-t) ([2]; female, pig, plasma, iv, 0.2 mg/kg, plasma, MRS4322 0.2 mg/kg IV, individual animals, read-out: AUClast): 238 ng·h/mL | C0 ([2]; female, pig, plasma, iv, 0.2 mg/kg, plasma, MRS4322 0.2 mg/kg IV, individual animals, read-out: C0): 207 ng/mL | clearance ([2]; female, pig, plasma, iv, 0.2 mg/kg, plasma, MRS4322 0.2 mg/kg IV, individual animals, read-out: Cl): 9.68 mL/min/kg | Cmax ([2]; female, pig, plasma, iv, 0.2 mg/kg, plasma, MRS4322 0.2 mg/kg IV, individual animals, read-out: Cmax): 133 ng/mL | Vd ([2]; female, pig, plasma, iv, 0.2 mg/kg, plasma, MRS4322 0.2 mg/kg IV, individual animals, read-out: Vz): 4.04 L/kg | AUC(0-inf) ([2]; female, pig, plasma, iv, 0.2 mg/kg, plasma, MRS4322 0.2 mg/kg IV, mean, read-out: AUCINF Mean): 326 ng·h/mL | AUC(0-t) ([2]; female, pig, plasma, iv, 0.2 mg/kg, plasma, MRS4322 0.2 mg/kg IV, mean, read-out: AUClast Mean): 249 ng·h/mL | C0 ([2]; female, pig, plasma, iv, 0.2 mg/kg, plasma, MRS4322 0.2 mg/kg IV, mean, read-out: C0 Mean): 248 ng/mL | clearance ([2]; female, pig, plasma, iv, 0.2 mg/kg, plasma, MRS4322 0.2 mg/kg IV, mean, read-out: Cl Mean): 10.8 mL/min/kg | Cmax ([2]; female, pig, plasma, iv, 0.2 mg/kg, plasma, MRS4322 0.2 mg/kg IV, mean, read-out: Cmax Mean): 139 ng/mL | Vd ([2]; female, pig, plasma, iv, 0.2 mg/kg, plasma, MRS4322 0.2 mg/kg IV, mean, read-out: Vz Mean): 3.05 L/kg | Tmax ([2]; plasma, MRS4322 0.2 mg/kg IV, individual animals): 15 min | AUCINF [2, 3]: 233 ng·h/mL and 401 ng·h/mL | AUClast [2, 3]: 203 ng·h/mL and 307 ng·h/mL | C0 [2, 3]: 286 ng/mL and 289 ng/mL | Cl [2, 3]: 14.3 mL/min/kg and 8.31 mL/min/kg | Cmax [2, 3]: 120 ng/mL and 163 ng/mL | Half Life [2, 3]: 4.82 h and 2.31 h and 3.13 h | Vz [2, 3]: 2.86 L/kg and 2.25 L/kg
